In PubChem BioAssay (NCI):
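Method: 48-hour compound exposure of cells in 96-well plates, five concentrations, linear interpolation of endpoints. TGI: total growth inhibition.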

Columns and labels:
Assay in all cases: DTP human tumour cell line panel, 48 h
[1] = tested on: 786-0 renal
[2] = tested on: A498 renal
[3] = tested on: A549 NSCLC
[4] = tested on: ACHN renal
[5] = tested on: CAKI-1 renal
[6] = tested on: CCRF-CEM leukemia
[7] = tested on: COLO 205 colon
[8] = tested on: DLD-1 colon
[9] = tested on: DMS 273 small cell lung
[10] = tested on: EKVX NSCLC
[11] = tested on: HCT-116 colon
[12] = tested on: HCT-15 colon
[13] = tested on: HL-60(TB) leukemia
[14] = tested on: HOP-18 NSCLC
[15] = tested on: HOP-62 NSCLC
[16] = tested on: HOP-92 NSCLC
[17] = tested on: HT29 colon
[18] = tested on: IGROV1 ovarian
[19] = tested on: K-562 leukemia
[20] = tested on: KM20L2 colon
[21] = tested on: LOX IMVI melanoma
[22] = tested on: LXFL 529 NSCLC
[23] = tested on: M14 melanoma
[24] = tested on: M19-MEL melanoma
[25] = tested on: MOLT-4 leukemia
[26] = tested on: NCI-H23 lung
[27] = tested on: NCI-H460 lung
[28] = tested on: NCI-H522 lung
[29] = tested on: OVCAR-8 ovarian
[30] = tested on: RPMI-8226 leukemia
[31] = tested on: RXF 393 renal
[32] = tested on: SF-268 CNS
[33] = tested on: SF-295 CNS
[34] = tested on: SF-539 CNS
[35] = tested on: SK-MEL-28 melanoma
[36] = tested on: SK-MEL-5 melanoma
[37] = tested on: SK-OV-3 ovarian
[38] = tested on: SN12C renal
[39] = tested on: SW-620 colon
[40] = tested on: TK-10 renal
[41] = tested on: U251 CNS
[42] = tested on: UACC-62 melanoma
[43] = tested on: UO-31 renal
[44] = tested on: BT-549 breast
[45] = tested on: DU-145 prostate
[46] = tested on: HCC-2998 colon
[47] = tested on: HS 578T breast
[48] = tested on: KM12 colon
[49] = tested on: MALME-3M melanoma
[50] = tested on: MCF7 breast
[51] = tested on: MDA-MB-231 breast
[52] = tested on: MDA-MB-435
[53] = tested on: MDA-N
[54] = tested on: NCI-H226 lung
[55] = tested on: NCI/ADR-RES ovarian
[56] = tested on: OVCAR-3 ovarian
[57] = tested on: OVCAR-4 ovarian
[58] = tested on: OVCAR-5 ovarian
[59] = tested on: PC-3 prostate
[60] = tested on: SK-MEL-2 melanoma
[61] = tested on: SNB-19 CNS
[62] = tested on: SNB-75 CNS
[63] = tested on: SR leukemia
[64] = tested on: T-47D breast
[65] = tested on: UACC-257 melanoma

SMILES: Cc1nc2ccccc2c(=O)n1/N=C(\N=Nc1ccc(Cl)cc1)c1cccc(-c2ccco2)c1
- TGI [1]: > 100 µM
- TGI [2]: > 100 µM
- TGI [3]: > 100 µM
- TGI [4]: > 100 µM
- TGI [5]: 98.4 µM
- TGI [6]: 88.2 µM
- TGI [7]: 89.4 µM
- TGI [8]: > 100 µM
- TGI [9]: > 100 µM
- TGI [10]: > 100 µM
- TGI [11]: 95.5 µM
- TGI [12]: > 100 µM
- TGI [13]: 69.4 µM
- TGI [14]: > 100 µM
- TGI [15]: 62.6 µM
- TGI [16]: 55.4 µM
- TGI [17]: > 100 µM
- TGI [18]: > 100 µM
- TGI [19]: > 100 µM
- TGI [20]: > 100 µM
- TGI [21]: > 100 µM
- TGI [22]: > 100 µM
- TGI [23]: > 100 µM
- TGI [24]: > 100 µM
- TGI [25]: > 100 µM
- TGI [26]: 65.2 µM
- TGI [27]: > 100 µM
- TGI [28]: 54.4 µM
- TGI [29]: > 100 µM
- TGI [30]: > 100 µM
- TGI [31]: 76.8 µM
- TGI [32]: > 100 µM
- TGI [33]: 94.6 µM
- TGI [34]: 98.4 µM
- TGI [35]: 58.7 µM
- TGI [36]: 57.4 µM
- TGI [37]: > 100 µM
- TGI [38]: > 100 µM
- TGI [39]: > 100 µM
- TGI [40]: > 100 µM
- TGI [41]: > 100 µM
- TGI [42]: 87 µM
- TGI [43]: 43.1 µM

SMILES: CCN(Cc1cc(Cl)cc(C)c1O)Cc1c(O)ccc2ccccc12
- TGI [1]: 34 µM
- TGI [2]: 33.1 µM
- TGI [3]: 38 µM
- TGI [4]: 31.5 µM
- TGI [44]: 27.4 µM
- TGI [5]: 28.8 µM
- TGI [6]: 42.5 µM
- TGI [7]: 42 µM
- TGI [45]: 34.7 µM
- TGI [10]: 32.8 µM
- TGI [46]: 32.7 µM
- TGI [11]: 33.1 µM
- TGI [12]: 30.5 µM
- TGI [13]: 34 µM
- TGI [15]: 26.4 µM
- TGI [16]: 26.2 µM
- TGI [47]: 36.5 µM
- TGI [17]: 28.1 µM
- TGI [18]: 31.1 µM
- TGI [19]: 65.4 µM
- TGI [48]: 33 µM
- TGI [21]: 38.8 µM
- TGI [23]: 35.9 µM
- TGI [49]: 29.8 µM
- TGI [50]: 39.1 µM
- TGI [51]: 35.4 µM
- TGI [52]: 29.9 µM
- TGI [53]: 35.8 µM
- TGI [25]: 28 µM
- TGI [54]: 41 µM
- TGI [26]: 32.1 µM
- TGI [27]: 36 µM
- TGI [28]: 31.8 µM
- TGI [55]: 32 µM
- TGI [56]: 29 µM
- TGI [57]: 31.6 µM
- TGI [58]: 35.2 µM
- TGI [29]: 37.7 µM
- TGI [59]: 29.9 µM
- TGI [30]: > 100 µM
- TGI [31]: 31.2 µM
- TGI [32]: 34.8 µM
- TGI [33]: 31.3 µM
- TGI [34]: 30 µM
- TGI [60]: 32.7 µM
- TGI [35]: 34.8 µM
- TGI [36]: 29.4 µM
- TGI [37]: 29.8 µM
- TGI [38]: 37 µM
- TGI [61]: 40.9 µM
- TGI [62]: 24.1 µM
- TGI [63]: 52.5 µM
- TGI [39]: 69.7 µM
- TGI [64]: 35.8 µM
- TGI [40]: 31 µM
- TGI [41]: 31.7 µM
- TGI [65]: 30.4 µM
- TGI [42]: 31.4 µM
- TGI [43]: 30.4 µM
